For data set [1], the system named is KB tumor xenografts (folate receptor positive). The experiment in a line: Whole body imaging and tissue biodistribution in mice bearing folate receptor-positive tumor xenografts. To be noted: nude mice, KB tumors, 10 nmol intravenously, 2.5 hours. Format: in vivo. How it is done: (§1) KB cells (a human nasopharyngeal cell line) were obtained from American type culture collection (Rockville, Md.) and grown as a monolayer using folate free 1640 RPMI medium containing (Gibco, N.Y.) 10% heat-inactivated fetal bovine serum (Atlanta Biological, Ga.) and 1% penicillin streptomycin (Gibco, N.Y.) in a 5% carbon dioxide: 95% air-humidified atmosphere at 37° C. for at least six passages before they were used for the assays.
Athymic female nude (nu/nu) mice (5 weeks old, 18-20 g) were purchased from Harlan Laboratories (Indianapolis, Ind.) and maintained on gamma-irradiated folate-deficient special diet (Teklad, Wis.) for at least 2 weeks before the start of the study. […]
Seven-week-old female nu/nu mice were inoculated subcutaneously with KB cells (1.0×10^6/mouse in folate free RPMI 1640 medium) on the shoulder. Growth of the tumors was measured in perpendicular directions every 2 days using a caliper (body weights were monitored on the same schedule), and the volumes of the tumors were calculated as 0.5×L×W^2 (L=longest axis and W=axis perpendicular to L in millimeters). […]
(§2) Following whole body imaging, animals were dissected and selected tissues (heart, lung, liver, spleen, kidneys, stomach, small intestine, large intestine, muscle, skin, tumor) were analyzed for fluorescence activity using IVIS imager as before. […]

Data set [2] concerns the target T1, folate receptors (Homo sapiens, UniProt P15328).
T1 construct: KB cells that overexpress FR-α were seeded in 24-well (100,000 cells/well) Falcon plates; endogenous in cells; host or cells: KB cells (ATCC), grown in folate-free RPMI 1640
As to the kind of experiment: Competitive binding with [3H] folic acid on KB cells that overexpress FR-alpha. The note with it: for Kd: read-out: dissociation constant (Kd); for Relative binding affinity: relative affinity of folic acid=1, molar ratio required to displace 50% of [3H] folic acid. How it is done: as §1
KB cells that overexpress FR-α were seeded in 24-well (100,000 cells/well) Falcon plates (BD Biosciences, Calif.) and allowed to form monolayers over a period of 12 hours. […] After incubating for 1 hour at 37° C., cells were rinsed with PBS (3×0.5 mL, Gibco, N.Y.) to remove any unbound radioactive materials. After adding 0.25 M sodium hydroxide (0.5 mL) and incubating for 12 hours at 4° C., cells were transferred into individual scintillation vials containing Ecolite scintillation cocktail (3.0 mL, MP Biomedicals, Ohio) and counted in a liquid scintillation analyzer (Packard). The relative binding affinities were calculated using a plot of % cell bound radioactivity versus the log concentration of the test article using GraphPad Prism 4.

The nature of data set [3]: Stability of OTL-0038 liquid, achiral HPLC. Format: physicochemical. The note with it: for Achiral HPLC: Liquid 5 mg per ml, 2 ml fill, PBS, 1 month; for stability of the liquid: 5° C. How it is done:
(§3) Stability data of Pte-L Tyrosine-S0456 (OTL-0038):
At 40° C. the liquid lost 8.6% at 270 nm and 1% at 774 nm. At room temperature the liquid lost about 1.4% at 270 nm and 0.5% at 774 nm.

In data set [4] the test system is A549 tumor xenografts (folate receptor negative). As to the kind of experiment: Whole body imaging and biodistribution in mice bearing folate receptor-negative tumor xenografts. Format: in vivo. Here is the method: A549 cells (a alveolar basal epithelial carcinoma cell line) were obtained from American type culture collection (Rockville, Md.) and grown as a monolayer using 1640 RPMI medium containing (Gibco, N.Y.) 10% heat-inactivated fetal bovine serum (Atlanta Biological, Ga.) and 1% penicillin streptomycin (Gibco, N.Y.) in a 5% carbon dioxide: 95% air-humidified atmosphere at 37° C. for at least six passages before they were used for the assays.
Athymic female nude (nu/nu) mice (6 weeks old, 18-20 g) were purchased from Harlan Laboratories (Indianapolis, Ind.) and maintained on normal diet (Teklad, Wis.). Animals were housed 5/cage in a barrier, pathogen-free cloaked rack. Autoclaved tap water and food were given as needed. The animals were housed in a sterile environment on a standard 12 hours light-dark cycle for the duration of the study. Mice were identified individually by ear punch. All animal procedures were approved by Purdue Animal Care and Use Committee. Animal care and studies were performed according to national and international guidelines for the humane treatment of animals.
Seven-week-old female nu/nu mice were inoculated subcutaneously with A549 cells (1.0×10^6/mouse in RPMI 1640 medium) on the shoulder. Growth of the tumors was measured in perpendicular directions every 2 days using a caliper (body weights were monitored on the same schedule), and the volumes of the tumors were calculated as 0.5×L×W^2(L=longest axis and W=axis perpendicular to L in millimeters). Once tumors reached between 400 and 500 mm^3 in volume, animals (6 mice/group) were intravenously injected with 10 nmol of OTL-0038 in phosphate buffered saline (100 μL). After 2.5 h, animals were sacrificed by CO2 asphyxiation. Whole body imaging (intact tumor) experiments were then performed using a Caliper IVIS Lumina II Imaging Station with Living Image 4.0 software (PerkinElmer Inc, Mass.). Settings for imaging:-lamp level: medium; excitation: 745 nm; emission: ICG (indocyanine green); epi illumination; binning: 4 (M), FOV=12.5; f-stop=2; acquisition time=1 s.
Following whole body imaging, animals were dissected and selected tissues (heart, lung, liver, spleen, kidneys, stomach, small intestine, large intestine, muscle, skin, tumor) were analyzed for fluorescence activity using IVIS imager as before. Settings for imaging:-lamp level: medium; excitation: 745 nm; emission: ICG; epi illumination; binning: 4 (M), FOV=12.5; f-stop=2; acquisition time=1 s.

Data set [5] deals with KB tumor xenografts (folate receptor positive). The experiment in a line: Comparative whole body imaging and tissue biodistribution with folate derived near IR agents. It counts as in vivo. The note with it: nude mice, KB tumors. Here is the method: as §1
Athymic female nude mice (5 weeks old, 18-20 g) were purchased from Harlan Laboratories (Indianapolis, Ind.) and maintained on gamma-irradiated folate-deficient special diet (Teklad, Wis.) for at least 2 weeks before the start of the study. Animals were housed 5/cage in a barrier, pathogen-free cloaked rack. […]
Seven-week-old female nu/nu mice were inoculated subcutaneously with KB cells (1.0×10^6/mouse in folate free RPMI 1640 medium) on the shoulder. Growth of the tumors was measured In perpendicular directions every 2 days using a caliper (body weights were monitored on the same schedule), and the volumes of the tumors were calculated as 0.5×L×[…] (L=longest axis and W=axis perpendicular to L in millimeters). […]
as §2

Data set [6] is described as follows: Stability of OTL-0038 lyophilized product, achiral HPLC. Format: physicochemical. To be noted: for Achiral HPLC: Lyophilization 5 mg per ml, 2 ml fill, Water, 1 month; for loss of the lyophilized product: 40° C.; for stability of the lyophilized product: first month.
Source text: as §3

Data set [7] relates to ovarian cancer malignant lesions. The note with it: human ovarian cancer patients, intra-operative; cited from earlier work.

The values that follow come from patent US9254341B2, “Methods of manufacture of pteroyl-amino acid-fluorescent dyes” (On Target Laboratories, LLC, priority 2013, dated 2016).

Entries after “also recorded” stand apart in the source; their conditions may differ.

T1 sequence (P15328 25-234): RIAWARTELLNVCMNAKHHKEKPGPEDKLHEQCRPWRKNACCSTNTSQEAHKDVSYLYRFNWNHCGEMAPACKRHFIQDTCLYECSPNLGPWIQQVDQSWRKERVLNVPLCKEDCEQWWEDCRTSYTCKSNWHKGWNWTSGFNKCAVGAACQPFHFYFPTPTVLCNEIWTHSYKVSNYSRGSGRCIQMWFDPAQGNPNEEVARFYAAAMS

For `CC1(C)C(=CC=C2CCCC(C=CC3=[N+](CCCCS(=O)(=O)[O-])c4ccc(S(=O)(=O)O)cc4C3(C)C)=C2Oc2ccc(C[C@H](NC(=O)c3ccc(NCc4cnc5nc(N)[nH]c(=O)c5n4)cc3)C(=O)O)cc2)N(CCCCS(=O)(=O)O)c2ccc(S(=O)(=O)O)cc21` [OTL-0038, PTE-L-Tyr-S0456], the “Whole body imaging: accumulation of fluorescence” value is “accumulated predominantly in the folate receptor positive tumors, with no substantial fluorescence activity in the other tissues” in data set [1]; “did not accumulated in the folate receptor negative tumors” in data set [4] (nude mice, A549 tumors, 10 nmol intravenously, 2.5 h); “accumulated predominantly in the folate receptor positive tumors” in data set [5] (10 nmol intravenously, 2.5 hours). Besides, the “Tissue biodistribution: fluorescence in dissected tissues” value in data set [1] (ex vivo IVIS) is “highest fluorescence intensity was observed in FR-positive tumors with no accumulation in the other tissues except the kidneys; also recorded: mainly accumulated in folate receptor positive tumor xenografts and kidneys”. Moreover, the “competition with [3H] folic acid” value in data set [2] (KB cells) is listed as “competed well”. For the same compound, in data set [2], the Kd worked out at 10.4 nM. Moreover, the Relative binding affinity in data set [2] is given as 0.71. Besides, the “Achiral HPLC” value in data set [3] (5, 270 nm) was 95.88%; in data set [3] (5, 774 nm), 94.29%; in data set [3] (25, 270 nm), 94.43%; in data set [3] (25, 774 nm), 94.05%; in data set [3] (40, 270 nm), 87.17%; in data set [3] (40, 774 nm), 93.56%. Moreover, the “Achiral HPLC” value in data set [3] (−20, 270 nm) amounted to 95.80%; in data set [3] (−20, 774 nm) it was 94.59%; in data set [6] (5, 270 nm), 95.88%; in data set [6] (5, 774 nm), 94.29%; in data set [6] (25, 270 nm), 94.43%; in data set [6] (25, 774 nm), 94.05%. For the same compound, the “Achiral HPLC” value in data set [6] (40, 270 nm) was found to be 87.17%; in data set [6] (40, 774 nm) it was 93.56%; in data set [6] (−20, 270 nm) it was 95.80%; in data set [6] (−20, 774 nm), 94.59%. Besides, the entries for the “stability of the liquid” value in data set [3] (270 nm) and in data set [3] (774 nm) were “seems stable” and “reasonably stable with a small degradation in purity”, respectively. Moreover, the “loss of the liquid” value is reported as 8.6% in data set [3] (40° C., 270 nm); 1% in data set [3] (40° C., 774 nm); “about 1.4%” in data set [3] (room temperature, 270 nm); 0.5% in data set [3] (room temperature, 774 nm). For the same compound, the “tumor uptake (ex vivo fluorescence)” value in data set [4] (A549 folate receptor negative tumors, 10 nmol, 2.5 h) is given as “no fluorescence was observed in folate receptor negative tumors”. In data set [4] (conclusion of the folate receptor-negative tumor study), the “in vivo specificity for folate receptor” value is “highly specific for folate receptor”. Moreover, in data set [4] (folate receptor-positive kidneys, 10 nmol, 2.5 h), the “kidney uptake (ex vivo fluorescence)” value was “high kidney uptake”. In addition, the “tumor fluorescence intensity, direct comparison” value in data set [5] (10 nmol) is listed as “brighter (higher) than the mice treated with the other folate-conjugated near IR dyes”. Moreover, the “loss of the lyophilized product” value is listed as 4.5% in data set [6] (270 nm) and 1.1% in data set [6] (774 nm). Further, the “stability of the lyophilized product” value in data set [6] (less than room temperature) is given as “stable at less than room temperature for the first month”; in data set [6] (room temperature), “stable at the first month”.

Regarding “folate-ethelenediamine-fluorescein isothiocyanate [EC17]”, the “malignant lesions removed with the aid of the dye than without it” value in data set [7] is given as around 5 ×.

Turning to `CC1(C)C(=CC=C2CCCC(C=CC3=[N+](CCCCS(=O)(=O)[O-])c4ccc(S(=O)(=O)O)cc4C3(C)C)=C2Oc2ccc(C[C@@H](NC(=O)c3ccc(NCc4cnc5nc(N)[nH]c(=O)c5n4)cc3)C(=O)O)cc2)N(CCCCS(=O)(=O)O)c2ccc(S(=O)(=O)O)cc21` [OTL-0039, PTE-D-Tyr-S0456], the “affinity for folate receptor, comparison in words” value in data set [2] (KB cells) was “lower affinity for folate receptor when compared to folic acid and OTL-0038”. In data set [2], the dissociation constant Kd was 81.8 nM and the Relative binding affinity is on record as 0.09.

In general, Kd refers to the free concentration of one partner at which half of the binding sites on the other are occupied at equilibrium, for simple one-to-one binding.
